Experimental findings from patent US9512107B2, “Therapeutically active compositions and their methods of use” (Agios Pharmaceuticals, Inc., priority 2012, dated 2016) are described below.

Experiment [1] has as its system U87MG pLVX-IDH2 R140Q-neo cells. The experiment is described as follows: U87MG pLVX-IDH2 R140Q-neo cell based assay, 2-HG in media by LC-MS at 48 hours. The following applies: for IC50: Homo sapiens, U-87 MG. Put shortly: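 2-HG secreted into the medium was measured by LC-MS after 48 h of compound treatment (0.2% DMSO final) of U87MG pLVX-IDH2 R140Q-neo cells in DMEM/10% FBS. The same wells were assayed at 72 h by CellTiter-Glo luminescence for effects on growth.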

The target of the next experiment is T1, IDH2 R140Q (Homo sapiens, UniProt P48735, R140Q).
T1 sequence (P48735 40-452 R140Q): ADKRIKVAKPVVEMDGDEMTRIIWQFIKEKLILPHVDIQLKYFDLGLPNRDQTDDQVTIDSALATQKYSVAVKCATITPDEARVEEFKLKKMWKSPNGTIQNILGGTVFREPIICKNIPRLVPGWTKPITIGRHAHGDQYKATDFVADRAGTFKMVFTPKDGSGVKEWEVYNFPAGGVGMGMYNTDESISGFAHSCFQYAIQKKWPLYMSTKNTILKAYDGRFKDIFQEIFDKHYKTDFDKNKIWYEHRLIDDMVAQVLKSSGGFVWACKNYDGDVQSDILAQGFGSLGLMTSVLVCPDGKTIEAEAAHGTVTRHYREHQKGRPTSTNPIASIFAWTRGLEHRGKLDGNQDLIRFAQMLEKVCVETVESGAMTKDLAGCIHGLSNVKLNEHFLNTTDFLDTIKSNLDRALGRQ
The experiment is described as follows: IDH2 R140Q enzymatic assay (cofactor depletion, similar format). Format: biochemical. As to conditions: for IC50: read-out: Enz R140Q.

Turning to `CC(C)(O)CNc1nc(Nc2cncc(C(F)(F)F)c2)nc(-c2cccc(C(F)(F)F)n2)n1` [Compound 406, 2-methyl-1-(4-(6-(trifluoromethyl)pyridin-2-yl)-6-(5-(trifluoromethyl)pyridin-3-ylamino)-1,3,5-triazin-2-ylamino)propan-2-ol], the results for the IC50 (in experiment [1]; at IDH2 R140Q) were < 0.1 µM and 0.1 to 1 µM, respectively.

With `COC1CC(Nc2nc(Nc3ccncc3)nc(-c3ccccc3)n2)C1` (stereo not drawn) [Compound 305, N^2-(3-methoxycyclobutyl)-6-phenyl-N^4-(pyridin-4-yl)-1,3,5-triazine-2,4-diamine], the “Cell R140Q” value in experiment [1] was “No Fit”. Also, at IDH2 R140Q, the IC50 was > 10 µM.

Turning to `CC(O)C(=O)Nc1nc(Nc2ccccc2)nc(-c2ccccc2)n1` (stereo not drawn) [Compound 324, 2-hydroxy-N-(4-phenyl-6-(phenylamino)-1,3,5-triazin-2-yl)propanamide], the IC50 was in the range of 1 to 10 µM in experiment [1] and 0.1 to 1 µM on IDH2 R140Q.

For the compound `CC(C)(O)CNc1nc(Nc2ccncc2)nc(-c2ccccc2)n1` [Compound 265, 2-methyl-1-(4-phenyl-6-(pyridin-4-ylamino)-1,3,5-triazin-2-ylamino)propan-2-ol], the IC50 in experiment [1] lay in the range of 1 to 10 µM; at IDH2 R140Q, 0.1 to 1 µM.

As to `CC(C)(O)CNc1nc(Nc2ccc(F)nc2)nc(-c2cccc(Cl)n2)n1` [Compound 388, 1-(4-(6-chloropyridin-2-yl)-6-(6-fluoropyridin-3-ylamino)-1,3,5-triazin-2-ylamino)-2-methylpropan-2-ol], the IC50 lay within 0.1 to 1 µM in experiment [1] and 1 to 10 µM at IDH2 R140Q.

In the case of `CC(C)Nc1nc(Nc2cnn(C)c2)nc(-c2ccccc2)n1` [Compound 308, N^2-isopropyl-N^4-(1-methyl-1H-pyrazol-4-yl)-6-phenyl-1,3,5-triazine-2,4-diamine], the IC50 in experiment [1] was 0.1 to 1 µM; on IDH2 R140Q it was < 0.1 µM.

Regarding `CC(C)Nc1nc(Nc2ccnc(C#N)c2)nc(-c2cccc(C(F)(F)F)n2)n1` [Compound 404, 4-(4-(isopropylamino)-6-(6-(trifluoromethyl)pyridin-2-yl)-1,3,5-triazin-2-ylamino)picolinonitrile], the IC50 in experiment [1] is < 0.1 µM; on IDH2 R140Q it was 0.1 to 1 µM.

On to `FC(F)(F)c1cncc(Nc2nc(NC3COC3)nc(-c3cccc(C(F)(F)F)n3)n2)c1` [Compound 379, N^2-(oxetan-3-yl)-6-(6-(trifluoromethyl)pyridin-2-yl)-N^4-(5-(trifluoromethyl)pyridin-3-yl)-1,3,5-triazine-2,4-diamine], for which the IC50 in experiment [1] is < 0.1 µM; on IDH2 R140Q, 0.1 to 1 µM.

As for `CC(C)Nc1cc(Nc2nc(NC(C)C)nc(-c3ccccc3)n2)ccn1` [Compound 301, N^2-isopropyl-N^4-(2-(isopropylamino)pyridin-4-yl)-6-phenyl-1,3,5-triazine-2,4-diamine], the IC50 is < 0.1 µM in experiment [1] and 0.1 to 1 µM at IDH2 R140Q.

Consider `Fc1cncc(Nc2nc(NC3CCC3)nc(-c3cccc(Cl)n3)n2)c1` [Compound 323, 6-(6-chloropyridin-2-yl)-N^2-cyclobutyl-N^4-(5-fluoropyridin-3-yl)-1,3,5-triazine-2,4-diamine], for which the IC50 was < 0.1 µM in experiment [1] and 0.1 to 1 µM at IDH2 R140Q.

With `Fc1cc(Nc2nc(NC3COC3)nc(-c3cccc(Cl)n3)n2)ccn1` [Compound 393, 6-(6-chloropyridin-2-yl)-N^2-(2-fluoropyridin-4-yl)-N^4-(oxetan-3-yl)-1,3,5-triazine-2,4-diamine], the IC50 was < 0.1 µM in experiment [1] and 0.1 to 1 µM on IDH2 R140Q.

As to `CC(C)Nc1nc(Nc2cncc(C(F)(F)F)c2)nc(-c2cccc(Cl)n2)n1` [Compound 394, 6-(6-chloropyridin-2-yl)-N^2-isopropyl-N4-(5-(trifluoromethyl)pyridin-3-yl)-1,3,5-triazine-2,4-diamine], the IC50 (in experiment [1]; at IDH2 R140Q) was < 0.1 µM each time.

Take `CC(C)Nc1nc(Nc2cccc(S(C)(=O)=O)c2)nc(-c2cccc(C(C)(F)F)n2)n1` [Compound 395, 6-(6-(1,1-difluoroethyl)pyridin-2-yl)-N^2-isopropyl-N^4-(3-(methylsulfonyl)phenyl)-1,3,5-triazine-2,4-diamine]: the IC50 in experiment [1] was < 0.1 µM; on IDH2 R140Q it was 0.1 to 1 µM.

Turning to `OCCNc1nc(Nc2ccncc2)nc(-c2ccccc2)n1` [Compound 294, 2-(4-phenyl-6-(pyridin-4-ylamino)-1,3,5-triazin-2-ylamino)ethanol], the “Cell R140Q” value in experiment [1] is recorded as “No Fit”. For the same compound, the “Enz R140Q” value at IDH2 R140Q is on record as “No Fit”.

Turning to `CC(C)Nc1nc(Nc2ccnc(C#N)c2)nc(-c2cccc(Cl)n2)n1` [Compound 355, 4-(4-(6-chloropyridin-2-yl)-6-(isopropylamino)-1,3,5-triazin-2-ylamino)picolinonitrile], the values for the IC50 (in experiment [1]; on IDH2 R140Q) were < 0.1 µM and 0.1 to 1 µM, respectively.

For `CC(C)Nc1nc(Nc2ccnc(C#N)c2)nc(-c2ccccc2F)n1` [Compound 369, 4-(4-(2-fluorophenyl)-6-(isopropylamino)-1,3,5-triazin-2-ylamino)picolinonitrile], the IC50 (in experiment [1]; at IDH2 R140Q) was < 0.1 µM throughout.

Regarding `FC(F)(F)c1cc(Nc2nc(NC3COC3)nc(-c3cccc(Cl)n3)n2)ccn1` [Compound 356, 6-(6-Chloro-pyridin-2-yl)-N-oxetan-3-yl-N′-(2-trifluoromethyl-pyridin-4-yl)-[1,3,5]triazine-2,4-diamine], the IC50 is < 0.1 µM in experiment [1] and 0.1 to 1 µM on IDH2 R140Q.

As to `Fc1cc(Nc2nc(NC3COC3)nc(-c3cccc(C(F)(F)F)n3)n2)ccn1` [Compound 377, N^2-(2-fluoropyridin-4-yl)-N^4-(oxetan-3-yl)-6-(6-(trifluoromethyl)pyridin-2-yl)-1,3,5-triazine-2,4-diamine], the IC50 is < 0.1 µM in experiment [1] and 0.1 to 1 µM at IDH2 R140Q.

For `CC(C)Nc1nc(Nc2ccnc(N3CCOCC3)c2)nc(-c2ccccc2)n1` [Compound 298, N^2-isopropyl-N^4-(2-morpholinopyridin-4-yl)-6-phenyl-1,3,5-triazine-2,4-diamine], the IC50 (in experiment [1]; at IDH2 R140Q) was < 0.1 µM throughout.

In the case of `COCCCNc1nc(Nc2ccncc2)nc(-c2ccccc2)n1` [Compound 275, N^2-(3-methoxypropyl)-6-phenyl-N^4-(pyridin-4-yl)-1,3,5-triazine-2,4-diamine], the IC50 (in experiment [1]; at IDH2 R140Q) was 0.1 to 1 µM in each case.

On to `CC(C)Nc1nc(Nc2ccncc2)nc(-c2cccc(N)c2)n1` [Compound 327], for which the IC50 (in experiment [1]; at IDH2 R140Q) was 0.1 to 1 µM in each case.

In the case of `CC[S+]([O-])c1cccc(Nc2nc(NC(C)C)nc(-c3ccccc3)n2)c1` (stereo not drawn) [Compound 277, N^2-(3-(ethylsulfinyl)phenyl)-N^4-isopropyl-6-phenyl-1,3,5-triazine-2,4-diamine], the figures for the IC50 (in experiment [1]; on IDH2 R140Q) were 0.1 to 1 µM and < 0.1 µM, respectively.

Consider `FC(F)(F)c1cc(Nc2nc(NC3COC3)nc(-c3cccc(C(F)(F)F)n3)n2)ccn1` [Compound 378, N^2-(oxetan-3-yl)-6-(6-(trifluoromethyl)pyridin-2-yl)-N^4-(2-(trifluoromethyl)pyridin-4-yl)-1,3,5-triazine-2,4-diamine], for which the figures for the IC50 (in experiment [1]; on IDH2 R140Q) were < 0.1 µM and 0.1 to 1 µM, respectively.

Take `CC(C)Nc1nc(Nc2cnoc2)nc(-c2ccccc2)n1` [Compound 309, N^2-isopropyl-N^4-(isoxazol-4-yl)-6-phenyl-1,3,5-triazine-2,4-diamine]: the IC50 (in experiment [1]; at IDH2 R140Q) was < 0.1 µM each time.
